Measured values: patent US4450269A, “Mono-5-substituted-3-chloro-4H-1,2,6-thiadiazin-4-one antifungal agents” (FMC Corporation, priority 1980, dated 1984)

Key:
Fusarium solani = assay: Soil treatment, bean root rot; type: in vivo; conditions: 150 ppm suspension, 3.8 mg active per pot; for pest or weed control at 150 ppm, 3.8 mg/pot: Fusarium solani, soil, 336 h, read-out: Percent Disease Control, seed/soil, bean root rot
Procedure, shortened: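 Soil around bean seedlings was drenched with a 150 ppm suspension, giving 3.8 mg active per pot. Twenty-four hours later the soil was inoculated with minced Fusarium solani mycelium. Plants were kept in a greenhouse, and percent control of root rot damage was scored after fourteen days.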

Sclerotinia fructicola = assay: Mycelial growth test; type: cell-based; conditions: SF; for inhibition at 5 ppm / inhibition at 10 ppm / inhibition at 20 ppm / inhibition at 40 ppm: Sclerotinia, 72 h, read-out: Percent Fungus Growth Inhibition; for Percent Fungus Growth Inhibition: 72 hours
Source text: | SF = Sclerotinia fructicola

Cladosporium cucumerinum = assay: Spore germination test; type: cell-based; conditions: CC, 48 hours
Procedure, shortened: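 Compound in acetone mixed into water agar at 40, 10, 2.5 and 1 ppm; plates seeded with spore suspension and incubated 48 hours at 24 °C. Percentage germinated spores counted and converted into a germination rating.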

Cercospora beticola = assay: whole plant or invertebrate; conditions: in Beta vulgaris, foliar, 24 h, read-out: Percent Disease Control, curative, sugar beet leaf spot
Uromyces phaseoli = conditions: in vivo

Compound	pest or weed control at 150 ppm, 3.8 mg/pot (Fusarium solani) [%]	inhibition at 5 ppm (Sclerotinia fructicola; 5 ppm) [%]	inhibition at 10 ppm (Sclerotinia fructicola; 10 ppm) [%]	inhibition at 20 ppm (Sclerotinia fructicola; 20 ppm) [%]	inhibition at 40 ppm (Sclerotinia fructicola; 40 ppm) [%]	Spore Germination Rating (Cladosporium cucumerinum; 1.0 ppm)	Spore Germination Rating (Cladosporium cucumerinum; 2.5 ppm)	Spore Germination Rating (Cladosporium cucumerinum; 10 ppm)	Spore Germination Rating (Cladosporium cucumerinum; 40 ppm)	pest or weed control at 150 ppm (Cercospora beticola) [%]	Percent Disease Control, seed/soil, bean root rot (Fusarium solani) [%]	Percent Disease Control, curative, bean rust (Uromyces phaseoli) [%]	Percent Fungus Growth Inhibition (Sclerotinia fructicola; 5 ppm) [%]	Percent Fungus Growth Inhibition (Sclerotinia fructicola; 10 ppm) [%]	Percent Fungus Growth Inhibition (Sclerotinia fructicola; 20 ppm) [%]	Percent Fungus Growth Inhibition (Sclerotinia fructicola; 40 ppm) [%]
CCCCOc1ccc(Oc2nsnc(Cl)c2=O)cc1 [Compound 6, 3-chloro-5-(4-n-butoxyphenoxy)-4H--1,2,6-thiadiazin-4-one]	0	0	67	0	67	0 (0-10)	0 (0-10)	0 (0-10)	0 (0-10)	0						
Cc1ccc(Oc2nsnc(Cl)c2=O)c(Br)c1 [Compound 57, 3-[(2-bromo-4-methyl)-phenoxy]-5-chloro-4H--1,2,6-thiadiazin-4-one]	0	68	82	100	100	3 (60-80)	0 (0-10)	0 (0-10)	0 (0-10)	90						
Cc1cc(Cl)ccc1Oc1nsnc(Cl)c1=O [Compound 55, 3-chloro-5-(4-chloro-2-methylphenoxy)-4H--1,2,6-thiadiazin-4-one]	0	42	50	56	61	2 (40-60)	1 (10-40)	0 (0-10)	0 (0-10)	95						
CC(=O)c1ccc(Oc2nsnc(Cl)c2=O)cc1 [Compound 47, 3-(4-acetylphenoxy)-5-chloro-4H--1,2,6-thiadiazin-4-one]	95	82	82	100	100	0 (0-10)	0 (0-10)	0 (0-10)	0 (0-10)	90						
Cc1cccc(Oc2nsnc(Cl)c2=O)c1 [Compound 21, 3-chloro-5-(3-methylphenoxy)-4H--1,2,6-thiadiazin-4-one]	0	100	100	100	100	1 (10-40)	0 (0-10)	0 (0-10)	0 (0-10)	100						
3-chloro-5-(bromophenoxy)-4H-1,2,6-thiadiazin-4-one [Compound 33]						0 (0-10)	0 (0-10)	0 (0-10)	0 (0-10)		95	0	44	61	94	100
Cc1cc(Oc2nsnc(Cl)c2=O)ccc1Cl [Compound 54, 3-chloro-5-(4-chloro-3-methylphenoxy)-4H--1,2,6-thiadiazin-4-one]	0	49	50	53	64	2 (40-60)	0 (0-10)	0 (0-10)	0 (0-10)	0						
Cc1cccc(C)c1Oc1nsnc(Cl)c1=O [Compound 24, 3-chloro-5-(2,6-dimethylphenoxy)-4H--1,2,6-thiadiazin-4-one]	0	100	100	100	100	0 (0-10)	0 (0-10)	0 (0-10)	0 (0-10)	50						
CC(=O)c1ccccc1Oc1nsnc(Cl)c1=O [Compound 49, 3-(2-acetylphenoxy)-5-chloro-4H--1,2,6-thiadiazin-4-one]	0	14	33	75	100	0 (0-10)	0 (0-10)	0 (0-10)	0 (0-10)	0						
O=c1c(Cl)nsnc1Oc1cccc(Cl)c1Cl [Compound 19, 3-chloro-5-(2,3-dichlorophenoxy)-4H--1,2,6-thiadiazin-4-one]	0	64	76	100	100	2 (40-60)	0 (0-10)	0 (0-10)	0 (0-10)	0						
O=c1c(Cl)nsnc1Oc1ccc(Cl)cc1Cl [Compound 17, 3-chloro-5-(2,4-dichlorophenoxy)-4H--1,2,6-thiadiazin-4-one]	0	62	76	96	100	4 (80-100)	0 (0-10)	0 (0-10)	0 (0-10)	95						
O=c1c(Cl)nsnc1Oc1cc(Cl)cc(Cl)c1 [Compound 20, 3-chloro-5-(3,5-dichlorophenoxy)-4H--1,2,6-thiadiazin-4-one]	75	60	73	84	87	0 (0-10)	0 (0-10)	0 (0-10)	0 (0-10)	95						
Nc1ccc(Oc2nsnc(Cl)c2=O)cc1 [Compound 26, 5-(4-aminophenoxy)-3-chloro-4H--1,2,6-thiadiazin-4-one]	0				100	1 (10-40)	0 (0-10)	0 (0-10)	0 (0-10)	95			17	66		
O=c1c(Cl)nsnc1Oc1ccc([N+](=O)[O-])cc1 [Compound 9, 3-chloro-5-(4-nitrophenoxy)-4H--1,2,6-thiadiazin-4-one]	0	58	76	100	100	0 (0-10)	0 (0-10)	0 (0-10)	0 (0-10)	75						
Cc1cc(Oc2nsnc(Cl)c2=O)cc(C)c1Br [Compound 60, 3-[(4-bromo-3,5-dimethyl)-phenoxy]-5-chloro-4H--1,2,6-thiadiazin-4-one]	0	56	71	65	71	0 (0-10)	0 (0-10)	0 (0-10)	0 (0-10)	0						
O=c1c(Cl)nsnc1Oc1ccc(Br)cc1 [Compound 15, 3-chloro-5-(4-bromophenoxy)-4H--1,2,6-thiadiazin-4-one]	0	92	83	83	88	0 (0-10)	0 (0-10)	0 (0-10)	0 (0-10)	0						
